Test results from ChEMBL document CHEMBL6177998, “Rational Design of Dual Degraders by Incorporating Molecular Glue Structural Features into PROTAC Degraders” (J Med Chem, 2025).
Active and inactive are the calls of the source. No cut-off for these calls is given here.

Key:
[1] = Half-life in male ICR mouse at 2 mg/kg, iv by LC-MS/MS analysis; type: ADME, organism-based; settings: in vivo
[2] = target: T1, Protein cereblon/Androgen receptor (Homo sapiens, UniProt P10275+Q96SW2); assay: PROTAC activity at CRBN/AR in human 22Rv1 cells assessed as induction of AR degradation at 20 uM preincubated with EPI-002 for 4 hrs followed by compound addition and measured after 36 hrs by Western blot analysis; type: cell-based
Target sequence in this assay (P10275 whole entry, looked up): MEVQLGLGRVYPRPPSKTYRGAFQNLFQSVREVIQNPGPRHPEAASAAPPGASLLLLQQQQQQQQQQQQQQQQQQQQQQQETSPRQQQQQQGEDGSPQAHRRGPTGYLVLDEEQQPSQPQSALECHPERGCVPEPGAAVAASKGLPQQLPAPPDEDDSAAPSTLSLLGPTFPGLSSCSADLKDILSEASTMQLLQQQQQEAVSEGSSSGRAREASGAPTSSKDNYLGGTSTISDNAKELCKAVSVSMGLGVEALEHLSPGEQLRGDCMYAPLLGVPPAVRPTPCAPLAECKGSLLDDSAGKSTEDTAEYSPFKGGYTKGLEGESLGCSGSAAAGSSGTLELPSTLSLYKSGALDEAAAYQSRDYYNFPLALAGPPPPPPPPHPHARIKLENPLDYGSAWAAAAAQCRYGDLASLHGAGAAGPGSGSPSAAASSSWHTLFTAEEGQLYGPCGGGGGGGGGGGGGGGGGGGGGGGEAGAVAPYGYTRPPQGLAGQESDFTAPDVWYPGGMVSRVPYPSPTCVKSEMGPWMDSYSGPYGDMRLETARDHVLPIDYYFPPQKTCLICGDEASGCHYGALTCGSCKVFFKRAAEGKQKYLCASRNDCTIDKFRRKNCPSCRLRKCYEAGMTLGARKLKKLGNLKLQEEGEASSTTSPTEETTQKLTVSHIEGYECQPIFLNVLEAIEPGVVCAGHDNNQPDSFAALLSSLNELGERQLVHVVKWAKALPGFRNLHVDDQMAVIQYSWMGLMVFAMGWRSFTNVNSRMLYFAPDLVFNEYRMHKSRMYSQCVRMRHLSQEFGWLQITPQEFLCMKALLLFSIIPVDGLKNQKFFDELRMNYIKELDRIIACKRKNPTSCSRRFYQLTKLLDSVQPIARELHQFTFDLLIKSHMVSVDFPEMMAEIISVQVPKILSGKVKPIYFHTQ
Target sequence in this assay (Q96SW2 whole entry, looked up): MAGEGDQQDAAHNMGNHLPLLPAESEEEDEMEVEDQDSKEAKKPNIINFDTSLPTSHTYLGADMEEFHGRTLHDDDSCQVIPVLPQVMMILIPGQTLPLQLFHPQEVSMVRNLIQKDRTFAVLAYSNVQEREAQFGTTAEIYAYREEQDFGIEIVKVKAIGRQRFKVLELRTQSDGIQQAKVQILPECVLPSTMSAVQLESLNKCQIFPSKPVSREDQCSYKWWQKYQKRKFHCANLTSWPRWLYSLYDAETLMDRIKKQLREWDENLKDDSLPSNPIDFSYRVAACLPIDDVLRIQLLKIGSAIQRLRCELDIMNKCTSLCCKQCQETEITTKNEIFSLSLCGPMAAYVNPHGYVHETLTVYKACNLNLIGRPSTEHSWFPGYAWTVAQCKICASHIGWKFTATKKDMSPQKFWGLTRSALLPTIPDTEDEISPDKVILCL

[3] = test system: 22Rv1; assay: Induction of AR degradation in human 22Rv1 cells transfected with CRBN siRNA at 30 nM incubated for 24 hrs by Western blot analysis; type: cell-based
[4] = target: T1, Protein cereblon/Androgen receptor; assay: PROTAC activity at CRBN/AR in human LNCaP cells assessed as induction of AR degradation incubated for 24 hrs by Western blot analysis; type: cell-based
[5] = target: T2, Protein cereblon/Eukaryotic peptide chain release factor GTP-binding subunit ERF3A (Homo sapiens, UniProt Q96SW2+P15170); assay: Molecular glue activity at CRBN/GSPT1 in human VCaP cells assessed as induction of GSPT1 degradation at 50 nM preincubated with MLN4924 followed by compound addition and measured after 12 hrs by Western blot analysis; type: cell-based
Target sequence in this assay (P15170 whole entry, looked up): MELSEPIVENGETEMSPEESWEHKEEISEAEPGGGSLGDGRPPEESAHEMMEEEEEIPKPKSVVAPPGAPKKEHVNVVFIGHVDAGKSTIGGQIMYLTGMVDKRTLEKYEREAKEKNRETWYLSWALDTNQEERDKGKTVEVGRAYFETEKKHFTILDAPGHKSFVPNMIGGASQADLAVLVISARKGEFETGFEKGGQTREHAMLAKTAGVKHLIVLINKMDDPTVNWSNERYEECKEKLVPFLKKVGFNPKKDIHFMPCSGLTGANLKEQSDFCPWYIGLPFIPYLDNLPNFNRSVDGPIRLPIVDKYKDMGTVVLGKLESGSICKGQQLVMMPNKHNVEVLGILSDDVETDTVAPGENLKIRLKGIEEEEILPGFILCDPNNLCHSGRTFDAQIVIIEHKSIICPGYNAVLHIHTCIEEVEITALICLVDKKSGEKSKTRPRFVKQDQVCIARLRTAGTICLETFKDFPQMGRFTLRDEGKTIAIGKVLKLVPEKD
Target sequence in this assay (Q96SW2 whole entry, looked up): as the sequence (Q96SW2 whole entry, looked up) above

[6] = target: T2, Protein cereblon/Eukaryotic peptide chain release factor GTP-binding subunit ERF3A; assay: Molecular glue activity at CRBN/GSPT1 in human 22Rv1 cells assessed as induction of GSPT1 degradation at 50 nM preincubated with MLN4924 followed by compound addition and measured after 12 hrs by Western blot analysis; type: cell-based
Target sequence in this assay (P15170 whole entry, looked up): as the sequence (P15170 whole entry, looked up) above
Target sequence in this assay (Q96SW2 whole entry, looked up): as the sequence (Q96SW2 whole entry, looked up) above

[7] = target: T1, Protein cereblon/Androgen receptor; assay: PROTAC activity at CRBN/AR in human 22Rv1 cells assessed as increase in androgen receptor polyubiquitination at 30 nM preincubated with compound for 12 hrs followed by MG132 addition and measured after 12 hrs by immunoprecipitation based Western blot analysis; type: cell-based; settings: time 24.0 hrs
Target sequence in this assay (P10275 whole entry, looked up): as the sequence (P10275 whole entry, looked up) above
Target sequence in this assay (Q96SW2 whole entry, looked up): as the sequence (Q96SW2 whole entry, looked up) above

[8] = target: T2, Protein cereblon/Eukaryotic peptide chain release factor GTP-binding subunit ERF3A; assay: Molecular glue activity at CRBN/GSPT1 in human 22Rv1 cells assessed as induction of GSPT1 degradation at 50 nM preincubated with MG132 followed by compound addition and measured after 12 hrs by Western blot analysis; type: cell-based
Target sequence in this assay (P15170 whole entry, looked up): as the sequence (P15170 whole entry, looked up) above
Target sequence in this assay (Q96SW2 whole entry, looked up): as the sequence (Q96SW2 whole entry, looked up) above

[9] = test system: Protein cereblon/Androgen receptor (Homo sapiens), P10275+Q96SW2 [UNDEFINED MUTATION]; assay: PROTAC activity at CRBN/Androgen receptor splice variant 7 in human VCaP cells assessed as induction of AR-V7 degradation at 0.01 uM incubated for 24 hrs by Western blot analysis relative to control; type: cell-based
[10] = target: T2, Protein cereblon/Eukaryotic peptide chain release factor GTP-binding subunit ERF3A; assay: Molecular glue activity at CRBN/GSPT1 in human VCaP cells assessed as induction of GSPT1 degradation at 20 nM by Western blot analysis; type: cell-based; settings: time 1-36 hrs
Target sequence in this assay (P15170 whole entry, looked up): as the sequence (P15170 whole entry, looked up) above
Target sequence in this assay (Q96SW2 whole entry, looked up): as the sequence (Q96SW2 whole entry, looked up) above

[11] = test system: Protein cereblon/Androgen receptor (Homo sapiens), P10275+Q96SW2 [UNDEFINED MUTATION]; assay: PROTAC activity at CRBN/Androgen receptor splice variant 7 in human 22Rv1 cells assessed as induction of AR-V7 degradation at 50 nM preincubated with MLN4924 followed by compound addition and measured after 12 hrs by Western blot analysis; type: cell-based
[12] = test system: Protein cereblon/Androgen receptor (Homo sapiens), P10275+Q96SW2 [UNDEFINED MUTATION]; assay: PROTAC activity at CRBN/Androgen receptor splice variant 7 in human 22Rv1 cells assessed as induction of AR-V7 degradation at 0.01 uM incubated for 24 hrs by Western blot analysis relative to control; type: cell-based
[13] = test system: CWR22R; assay: Upregulation of ribosome-related pathway gene expression in human 22Rv1 cells at 3 nM incubated for 24 hrs by GSEA analysis; type: functional, cell-based
[14] = target: T2, Protein cereblon/Eukaryotic peptide chain release factor GTP-binding subunit ERF3A; assay: Molecular glue activity at CRBN/GSPT1 in human 22Rv1 cells assessed as induction of GSPT1 degradation at 20 nM incubated for 2 hrs by Western blot analysis (reference value: 0 %); type: cell-based
Target sequence in this assay (P15170 whole entry, looked up): as the sequence (P15170 whole entry, looked up) above
Target sequence in this assay (Q96SW2 whole entry, looked up): as the sequence (Q96SW2 whole entry, looked up) above

[15] = target: T1, Protein cereblon/Androgen receptor; assay: PROTAC activity at CRBN/AR in human 22Rv1 cells assessed as induction of AR degradation at 0.1 uM incubated for 24 hrs by Western blot analysis relative to control; type: cell-based
Target sequence in this assay (P10275 whole entry, looked up): as the sequence (P10275 whole entry, looked up) above
Target sequence in this assay (Q96SW2 whole entry, looked up): as the sequence (Q96SW2 whole entry, looked up) above

[16] = target: T1, Protein cereblon/Androgen receptor; assay: PROTAC activity at CRBN/AR in human 22Rv1 cells assessed as decrease in TMPRSS2 mRNA level at 1 to 3 nM incubated for 24 hrs by qRT-PCR analysis; type: cell-based; settings: dose 1-3 nM
Target sequence in this assay (P10275 whole entry, looked up): as the sequence (P10275 whole entry, looked up) above
Target sequence in this assay (Q96SW2 whole entry, looked up): as the sequence (Q96SW2 whole entry, looked up) above

[17] = target: T2, Protein cereblon/Eukaryotic peptide chain release factor GTP-binding subunit ERF3A; assay: Molecular glue activity at CRBN/GSPT1 in human 22Rv1 cells assessed as induction of GSPT1 degradation incubated for 24 hrs by Western blot analysis; type: cell-based
[18] = AUC in male ICR mouse at 2 mg/kg, iv by LC-MS/MS analysis; type: ADME, organism-based; settings: in vivo
[19] = Selectivity ratio of IC50 for antiproliferative activity against AR-independent human DU-145 cells assessed as cell growth inhibition to IC50 for antiproliferative activity against AR-dependent human LNCaP cells assessed as cell growth inhibition; type: functional
[20] = target: T1, Protein cereblon/Androgen receptor; assay: (§1) PROTAC activity at CRBN/Androgen receptor splice variant 7 in human VCaP cells assessed as induction of AR-V7 degradation incubated for 24 hrs by Western blot analysis; type: cell-based
Target sequence in this assay (P10275 whole entry, looked up, change not shown): as the sequence (P10275 whole entry, looked up) above
Target sequence in this assay (Q96SW2 whole entry, looked up, change not shown): as the sequence (Q96SW2 whole entry, looked up) above

[21] = test system: Protein cereblon/Androgen receptor (Homo sapiens), P10275+Q96SW2 [UNDEFINED MUTATION]; assay: as §1; type: cell-based
[22] = test system: Protein cereblon/Androgen receptor (Homo sapiens), P10275+Q96SW2 [UNDEFINED MUTATION]; assay: PROTAC activity at CRBN/Androgen receptor splice variant 7 in human 22Rv1 cells assessed as induction of AR-V7 degradation at 20 uM preincubated with EPI-002 for 4 hrs followed by compound addition and measured after 36 hrs by Western blot analysis; type: cell-based
[23] = target: T1, Protein cereblon/Androgen receptor; assay: (§2) PROTAC activity at CRBN/Androgen receptor splice variant 7 in human 22Rv1 cells assessed as induction of AR-V7 degradation incubated for 24 hrs by Western blot analysis; type: cell-based
Target sequence in this assay (P10275 whole entry, looked up, change not shown): as the sequence (P10275 whole entry, looked up) above
Target sequence in this assay (Q96SW2 whole entry, looked up, change not shown): as the sequence (Q96SW2 whole entry, looked up) above

[24] = test system: Protein cereblon/Androgen receptor (Homo sapiens), P10275+Q96SW2 [UNDEFINED MUTATION]; assay: as §2; type: cell-based
[25] = target: T2, Protein cereblon/Eukaryotic peptide chain release factor GTP-binding subunit ERF3A; assay: Molecular glue activity at CRBN/GSPT1 in human 22Rv1 cells assessed as induction of GSPT1 degradation by measuring maximal efficacy incubated for 24 hrs by Western blot analysis relative to control; type: cell-based
Target sequence in this assay (P15170 whole entry, looked up): as the sequence (P15170 whole entry, looked up) above
Target sequence in this assay (Q96SW2 whole entry, looked up): as the sequence (Q96SW2 whole entry, looked up) above

[26] = target: T2, Protein cereblon/Eukaryotic peptide chain release factor GTP-binding subunit ERF3A; assay: Molecular glue activity at CRBN/GSPT1 in human 22Rv1 cells assessed as induction of GSPT1 degradation at 0.01 uM incubated for 24 hrs by Western blot analysis relative to control; type: cell-based
[27] = target: T2, Protein cereblon/Eukaryotic peptide chain release factor GTP-binding subunit ERF3A; assay: Molecular glue activity at CRBN/GSPT1 in human 22Rv1 cells assessed as induction of GSPT1 degradation at 20 nM incubated for 36 hrs by Western blot analysis (reference value: 0 %); type: cell-based
[28] = Cytotoxicity against human THLE-2 cells assessed as cell growth inhibition incubated for 72 hrs by Celltiter-lumi luminescent cell viability assay; type: toxicity, cell-based
[29] = test system: Protein cereblon/Androgen receptor (Homo sapiens), P10275+Q96SW2 [UNDEFINED MUTATION]; assay: PROTAC activity at CRBN/Androgen receptor splice variant 7 in human 22Rv1 cells assessed as induction of AR-V7 degradation by measuring maximal efficacy incubated for 24 hrs by Western blot analysis relative to control; type: cell-based
[30] = target: Protein cereblon/Zinc finger protein Aiolos (Homo sapiens) (UniProt Q96SW2+Q9UKT9); assay: Molecular glue activity at CRBN/IKZF3 in human 22Rv1 cells assessed as induction of IKZF3 degradation at 1 uM incubated for 6 hrs by Western blot analysis; type: cell-based
Chain of Protein cereblon/Zinc finger protein Aiolos (Homo sapiens) (Q96SW2 whole entry, looked up): as above
Chain of Protein cereblon/Zinc finger protein Aiolos (Homo sapiens) (Q9UKT9 whole entry, looked up): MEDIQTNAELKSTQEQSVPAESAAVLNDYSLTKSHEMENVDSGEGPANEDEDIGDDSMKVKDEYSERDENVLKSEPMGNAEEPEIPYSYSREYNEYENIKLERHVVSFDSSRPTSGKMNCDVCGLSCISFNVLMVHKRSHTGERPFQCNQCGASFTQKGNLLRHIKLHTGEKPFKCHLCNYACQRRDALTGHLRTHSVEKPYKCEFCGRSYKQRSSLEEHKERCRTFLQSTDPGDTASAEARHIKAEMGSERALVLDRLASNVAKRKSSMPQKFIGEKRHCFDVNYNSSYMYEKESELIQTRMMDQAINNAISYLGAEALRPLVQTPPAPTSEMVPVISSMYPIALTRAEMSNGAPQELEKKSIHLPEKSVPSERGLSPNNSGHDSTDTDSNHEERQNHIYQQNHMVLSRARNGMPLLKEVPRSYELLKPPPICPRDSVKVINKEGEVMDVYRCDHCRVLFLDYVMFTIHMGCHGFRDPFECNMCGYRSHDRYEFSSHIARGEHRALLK

Chain of Protein cereblon/Androgen receptor (Homo sapiens), P10275+Q96SW2 [UNDEFINED MUTATION] (P10275 whole entry, looked up, change not shown, canonical isoform): as the sequence (P10275 whole entry, looked up) above
Chain of Protein cereblon/Androgen receptor (Homo sapiens), P10275+Q96SW2 [UNDEFINED MUTATION] (Q96SW2 whole entry, looked up, change not shown, canonical isoform): as the sequence (Q96SW2 whole entry, looked up) above

COc1ccc(C(C)(C)c2cc(Cl)c(OCC3CCN(C(=O)CCCCCNc4ccc5c(c4)C(=O)N(C4CCC(=O)NC4=O)C5=O)CC3)c(C#N)c2)cc1 (configuration not stated)
half-life [1]: 54 min | Activity [2]: inactive | Activity [3]: inactive | Activity [4]: Dose-dependent-effect | DC50 [4]: 15.6 nM | Activity [5]: inactive | Activity [6]: inactive | Activity [7]: Active | Activity [8]: inactive | Activity [9]: 85.1% | Activity [10]: Time-dependent-effect | Activity [11]: inactive | Activity [12]: 65.7% | Activity [13]: Active | Activity [14]: 74.6% | Activity [15]: 89.9% | Activity [16]: Active | Activity [17]: Dose-dependent-effect | DC50 [17]: 1.2 nM | AUC [18]: 1850 ng·h/mL | Ratio IC50 [19]: 315 | DC50 [20]: 2.5 nM | Activity [21]: Dose-dependent-effect | Activity [22]: inactive | DC50 [23]: 3 nM | Activity [24]: Dose-dependent-effect | Emax [25]: 94.2% | Activity [26]: 93.9% | Activity [27]: 98.5% | IC50 at 72 h [28]: > 10000 nM | Emax [29]: 92.6% | Activity [30]: inactive
